Measurements from PMC11773056, “The zymogenic form of SARS-CoV-2 main protease: A discrete target for drug discovery” (The Journal of Biological Chemistry, 2024).

Molecular target: T1, M^pro expressed from mCherry-repM^pro-eGFP (total protease, all forms) (Severe acute respiratory syndrome coronavirus 2, UniProt P0DTD1)
T1 construct: gene rep
Experiment: cell-based
Settings: read-out: HEK293T cells, reporter mCherry-repM^pro-eGFP / Total inhibition EC50

O=C(Oc1cncc(C(F)(F)F)c1)c1cccc2[nH]ccc12 [compound 1, Compound 1]
EC50: 12.1 ± 2.8 µM
